Measured values taken from PMC9271048, “Probing strigolactone perception mechanisms with rationally designed small-molecule agonists stimulating germination of root parasitic weeds” (Nature Communications, 2022).

Tested on: P. aegyptiaca seeds
Experiment: P. aegyptiaca seed germination assay
Format: in vivo, Phelipanche aegyptiaca
Set-up: P. aegyptiaca seed germination activity, source data average: unit of the concentration uncertain
Settings: 0.1 (unit uncertain) as printed; Supplementary Fig. 9b
Procedure, shortened: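 Germination scored at ×20 magnification after one week dark incubation at 25 °C with compound (acetone stock diluted 999/1 in water). Seeds were NaClO-sterilized and conditioned 4 days at 25 °C in the dark beforehand; 1‰ acetone negative, rac-GR24 positive control; triplicate biological repeats.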
For `CC1=CC(CC(=O)N2CCN(C(=O)COc3ccc(Br)cc3C)CC2)OC1=O` (stereo not drawn) [4i], the “P. aegyptiaca seed germination activity, source data average” value (shortened to “P. aegyptiaca seed germination activity”) was 6.798%.

Same assay, conditions: 1 (unit uncertain) as printed; Supplementary Fig. 9b
With `CC1=CC(CC(=O)N2CCN(C(=O)COc3ccc(Br)cc3C)CC2)OC1=O` (stereo not drawn) [4i] the “P. aegyptiaca seed germination activity” value was 17.2667%.

Same assay, conditions: 10 (unit uncertain) as printed; Supplementary Fig. 9b
With `CC1=CC(CC(=O)N2CCN(C(=O)COc3ccc(Br)cc3C)CC2)OC1=O` (stereo not drawn) [4i] the “P. aegyptiaca seed germination activity” value was 39.4856%.

Tested on: not listed separately
Experiment: Chemical reactivity analysis (HPLC, methanol/PBS pH 7.4)
Format: physicochemical
Settings: 1:3 methanol and PBS (10 mM) pH 7.4
Procedure: Chemical reactivity is an important factor in the bioactivity of natural and synthetic SLs.
One hundred twenty microliters of sample solution was added to a solution of PBS (10 mM, pH 7.4, 810 μL) and methanol (270 μL). The solution was stirred vigorously for 30 s and then transferred to HPLC vial, and the vial was stored at 26 ± 1 °C. […] The analytical column was Extend-C18 (4.6 mm × 150 mm × 5 μm). The mobile phases were CH3CN and H2O (containing 0.1% HCO2H), VCH3CN:VH2O = 50:50, with a flow rate of 1 mL/min, and an injection volume of 5 μL. The percentage of remaining compounds in the solution was calculated from the peak area. The half-life times (t1/2) of samples were calculated.
With `CC1=CC(CC(=O)N2CCN(C(=O)COc3ccc(Br)cc3C)CC2)OC1=O` (stereo not drawn) [4i] the “reactivity in methanol/PBS” value was “no apparent hydrolysis was observed in 6 days”.

Same assay, conditions: Supplementary Fig. 10 source data; methanol/PBS pH 7.4, 26 °C
In the case of `CC1=CC(CC(=O)N2CCN(C(=O)COc3ccc(Br)cc3C)CC2)OC1=O` (stereo not drawn) [4i], the “half-life time (t1/2), source data average” value is reported as over 144 h.

Molecular target: ShHTL7 (Striga hermonthica, UniProt A0A0M3PNA2)
Sequence (A0A0M3PNA2 entry or part of it): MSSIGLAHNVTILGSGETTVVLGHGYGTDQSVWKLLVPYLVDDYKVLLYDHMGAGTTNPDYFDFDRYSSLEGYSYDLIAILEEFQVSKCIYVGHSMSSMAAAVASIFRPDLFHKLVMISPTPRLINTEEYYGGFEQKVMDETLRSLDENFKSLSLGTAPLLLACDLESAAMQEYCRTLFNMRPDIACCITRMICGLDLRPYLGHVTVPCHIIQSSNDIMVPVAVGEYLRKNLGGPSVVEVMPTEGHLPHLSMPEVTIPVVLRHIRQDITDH
Experiment: ShHTL7-hydrolysis reaction analysis (HPLC)
Format: biochemical
Settings: 10 μM compound, 30 °C, 30 min; Supplementary Figs. 11, 20a, 24a
Procedure, shortened: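 Compounds at 10 μM were incubated with 10 μg recombinant ShHTL7 or its mutants in PBS (pH 7.3) at 30 °C for 30 min, then quenched with methanol. The remaining compound was quantified by HPLC, and hydrolysis was expressed relative to a protein-free buffer control (n = 3).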
In the case of `CC1=CC(CC(=O)N2CCN(C(=O)COc3ccc(Br)cc3C)CC2)OC1=O` (stereo not drawn) [4i], the “relative percentage of hydrolysis by ShHTL7, source data average” value is reported as -2.582%.

Tested on: ShHTLs (10 HTL proteins in S. hermonthica)
Experiment: YLG-based competition assay on HTL proteins of S. hermonthica
Format: biochemical, Striga hermonthica
Settings: ShHTL2; YLG competition; Supplementary Fig. 27; read-out: IC50, replicate 1
Excerpt: In P. aegyptiaca, 5 KAI2s have been proposed as the SL receptors for the regulation of seed germination. […] The high sequence similarity may explain the consistency of these compounds in inducing germination in both S. hermonthica and P. aegyptiaca.
The excitation and emission wavelengths of YLG are 480 and 520 nm, respectively. We used a fluorescence spectrophotometer (CARY Eclipse) to detect the fluorescence intensity change of YLG during the enzymatic hydrolysis assay process. All the testing compounds and YLG were dissolved in DMSO and prepared as stock solutions just before use. […] The changes of fluorescence at 520 nm of each well were recorded every 1 min for 30 min. Using the reaction mixture without adding enzyme and tested compounds as the background control. After subtracting the background hydrolysis, a linear fluorescence increase in 8 min was used for further inspection. The IC50 values were determined via fitting relative inhibition percentages with the varying concentrations of compounds in Microsoft Excel.
Supplementary Fig. 27. Binding of compounds 4a, (R)- and (S)-4a, and 4g-i to the HTL proteins in S. hermonthica and KAI2 protein homologs in P. aegyptiaca. In the competitive inhibitory activity assay, YLG (3 µM) was used as the fluorogenic substrate. Error bar indicates SD (n = 3 biologically independent experiments).
(1 picture or pasted object on this page, not shown here)
For `CC1=CC(CC(=O)N2CCN(C(=O)COc3ccc(Br)cc3C)CC2)OC1=O` (stereo not drawn) [4i], the IC50 was 50.6 µM.

Same assay, conditions: ShHTL2; YLG competition; Supplementary Fig. 27; read-out: IC50, replicate 2
Compound `CC1=CC(CC(=O)N2CCN(C(=O)COc3ccc(Br)cc3C)CC2)OC1=O` (stereo not drawn) [4i] has an IC50 of 70.1 µM.

Same assay, conditions: ShHTL2; YLG competition; Supplementary Fig. 27; read-out: IC50, replicate 3
Work on `CC1=CC(CC(=O)N2CCN(C(=O)COc3ccc(Br)cc3C)CC2)OC1=O` (stereo not drawn) [4i] yielded an IC50 of 65.1 µM.

Same assay, conditions: ShHTL2; average of 3 replicates; Supplementary Fig. 27; read-out: IC50, average
`CC1=CC(CC(=O)N2CCN(C(=O)COc3ccc(Br)cc3C)CC2)OC1=O` (stereo not drawn) [4i] showed an IC50 of 61.9 µM.

Same assay, conditions: ShHTL3; YLG competition; Supplementary Fig. 27; read-out: IC50, replicate 1
Work on `CC1=CC(CC(=O)N2CCN(C(=O)COc3ccc(Br)cc3C)CC2)OC1=O` (stereo not drawn) [4i] yielded an IC50 of over 100 µM.

Same assay, conditions: ShHTL3; YLG competition; Supplementary Fig. 27; read-out: IC50, replicate 2
Work on `CC1=CC(CC(=O)N2CCN(C(=O)COc3ccc(Br)cc3C)CC2)OC1=O` (stereo not drawn) [4i] yielded an IC50 of over 100 µM.

Same assay, conditions: ShHTL3; YLG competition; Supplementary Fig. 27; read-out: IC50, replicate 3
`CC1=CC(CC(=O)N2CCN(C(=O)COc3ccc(Br)cc3C)CC2)OC1=O` (stereo not drawn) [4i] gave an IC50 of over 100 µM.

Same assay, conditions: ShHTL3; average of 3 replicates; Supplementary Fig. 27; read-out: IC50, average
For `CC1=CC(CC(=O)N2CCN(C(=O)COc3ccc(Br)cc3C)CC2)OC1=O` (stereo not drawn) [4i], the IC50 was over 100 µM.

Same assay, conditions: ShHTL4; YLG competition; Supplementary Fig. 27; read-out: IC50, replicate 1
In the case of `CC1=CC(CC(=O)N2CCN(C(=O)COc3ccc(Br)cc3C)CC2)OC1=O` (stereo not drawn) [4i], the IC50 is reported as 15 µM.

Same assay, conditions: ShHTL4; YLG competition; Supplementary Fig. 27; read-out: IC50, replicate 2
`CC1=CC(CC(=O)N2CCN(C(=O)COc3ccc(Br)cc3C)CC2)OC1=O` (stereo not drawn) [4i] gave an IC50 of 21.2 µM.

Same assay, conditions: ShHTL4; YLG competition; Supplementary Fig. 27; read-out: IC50, replicate 3
With `CC1=CC(CC(=O)N2CCN(C(=O)COc3ccc(Br)cc3C)CC2)OC1=O` (stereo not drawn) [4i] the IC50 was 16.4 µM.

Same assay, conditions: ShHTL4; average of 3 replicates; Supplementary Fig. 27; read-out: IC50, average
`CC1=CC(CC(=O)N2CCN(C(=O)COc3ccc(Br)cc3C)CC2)OC1=O` (stereo not drawn) [4i] showed an IC50 of 17.5 µM.

Same assay, conditions: ShHTL5; YLG competition; Supplementary Fig. 27; read-out: IC50, replicate 1
For `CC1=CC(CC(=O)N2CCN(C(=O)COc3ccc(Br)cc3C)CC2)OC1=O` (stereo not drawn) [4i], the IC50 was 48.9 µM.

Same assay, conditions: ShHTL5; YLG competition; Supplementary Fig. 27; read-out: IC50, replicate 2
`CC1=CC(CC(=O)N2CCN(C(=O)COc3ccc(Br)cc3C)CC2)OC1=O` (stereo not drawn) [4i] showed an IC50 of 42.2 µM.

Same assay, conditions: ShHTL5; YLG competition; Supplementary Fig. 27; read-out: IC50, replicate 3
With `CC1=CC(CC(=O)N2CCN(C(=O)COc3ccc(Br)cc3C)CC2)OC1=O` (stereo not drawn) [4i] the IC50 was 43 µM.

Same assay, conditions: ShHTL5; average of 3 replicates; Supplementary Fig. 27; read-out: IC50, average
Work on `CC1=CC(CC(=O)N2CCN(C(=O)COc3ccc(Br)cc3C)CC2)OC1=O` (stereo not drawn) [4i] yielded an IC50 of 44.7 µM.

Same assay, conditions: ShHTL6; YLG competition; Supplementary Fig. 27; read-out: IC50, replicate 1
In the case of `CC1=CC(CC(=O)N2CCN(C(=O)COc3ccc(Br)cc3C)CC2)OC1=O` (stereo not drawn) [4i], the IC50 is reported as 79.2 µM.

Same assay, conditions: ShHTL6; YLG competition; Supplementary Fig. 27; read-out: IC50, replicate 2
For `CC1=CC(CC(=O)N2CCN(C(=O)COc3ccc(Br)cc3C)CC2)OC1=O` (stereo not drawn) [4i], the IC50 was 55 µM.

Same assay, conditions: ShHTL6; YLG competition; Supplementary Fig. 27; read-out: IC50, replicate 3
In the case of `CC1=CC(CC(=O)N2CCN(C(=O)COc3ccc(Br)cc3C)CC2)OC1=O` (stereo not drawn) [4i], the IC50 is reported as 69.4 µM.

Same assay, conditions: ShHTL6; average of 3 replicates; Supplementary Fig. 27; read-out: IC50, average
With `CC1=CC(CC(=O)N2CCN(C(=O)COc3ccc(Br)cc3C)CC2)OC1=O` (stereo not drawn) [4i] the IC50 was 67.9 µM.

Same assay, conditions: ShHTL8; YLG competition; Supplementary Fig. 27; read-out: IC50, replicate 1
For `CC1=CC(CC(=O)N2CCN(C(=O)COc3ccc(Br)cc3C)CC2)OC1=O` (stereo not drawn) [4i], the IC50 was 72.8 µM.

Same assay, conditions: ShHTL8; YLG competition; Supplementary Fig. 27; read-out: IC50, replicate 2
`CC1=CC(CC(=O)N2CCN(C(=O)COc3ccc(Br)cc3C)CC2)OC1=O` (stereo not drawn) [4i] showed an IC50 of 71.1 µM.

Same assay, conditions: ShHTL8; YLG competition; Supplementary Fig. 27; read-out: IC50, replicate 3
Work on `CC1=CC(CC(=O)N2CCN(C(=O)COc3ccc(Br)cc3C)CC2)OC1=O` (stereo not drawn) [4i] yielded an IC50 of 75.4 µM.

Same assay, conditions: ShHTL8; average of 3 replicates; Supplementary Fig. 27; read-out: IC50, average
Compound `CC1=CC(CC(=O)N2CCN(C(=O)COc3ccc(Br)cc3C)CC2)OC1=O` (stereo not drawn) [4i] has an IC50 of 73.1 µM.

Same assay, conditions: ShHTL9; YLG competition; Supplementary Fig. 27; read-out: IC50, replicate 1
`CC1=CC(CC(=O)N2CCN(C(=O)COc3ccc(Br)cc3C)CC2)OC1=O` (stereo not drawn) [4i] showed an IC50 of 22.6 µM.

Same assay, conditions: ShHTL9; YLG competition; Supplementary Fig. 27; read-out: IC50, replicate 2
Work on `CC1=CC(CC(=O)N2CCN(C(=O)COc3ccc(Br)cc3C)CC2)OC1=O` (stereo not drawn) [4i] yielded an IC50 of 24.8 µM.

Same assay, conditions: ShHTL9; YLG competition; Supplementary Fig. 27; read-out: IC50, replicate 3
`CC1=CC(CC(=O)N2CCN(C(=O)COc3ccc(Br)cc3C)CC2)OC1=O` (stereo not drawn) [4i] showed an IC50 of 12.7 µM.

Same assay, conditions: ShHTL9; average of 3 replicates; Supplementary Fig. 27; read-out: IC50, average
`CC1=CC(CC(=O)N2CCN(C(=O)COc3ccc(Br)cc3C)CC2)OC1=O` (stereo not drawn) [4i] showed an IC50 of 20.1 µM.

Same assay, conditions: ShHTL10; YLG competition; Supplementary Fig. 27; read-out: IC50, replicate 1
`CC1=CC(CC(=O)N2CCN(C(=O)COc3ccc(Br)cc3C)CC2)OC1=O` (stereo not drawn) [4i] gave an IC50 of 69.6 µM.

Same assay, conditions: ShHTL10; YLG competition; Supplementary Fig. 27; read-out: IC50, replicate 2
With `CC1=CC(CC(=O)N2CCN(C(=O)COc3ccc(Br)cc3C)CC2)OC1=O` (stereo not drawn) [4i] the IC50 was 67.6 µM.

Same assay, conditions: ShHTL10; YLG competition; Supplementary Fig. 27; read-out: IC50, replicate 3
`CC1=CC(CC(=O)N2CCN(C(=O)COc3ccc(Br)cc3C)CC2)OC1=O` (stereo not drawn) [4i] gave an IC50 of 57.8 µM.

Same assay, conditions: ShHTL10; average of 3 replicates; Supplementary Fig. 27; read-out: IC50, average
`CC1=CC(CC(=O)N2CCN(C(=O)COc3ccc(Br)cc3C)CC2)OC1=O` (stereo not drawn) [4i] showed an IC50 of 65 µM.

Same assay, conditions: ShHTL11; YLG competition; Supplementary Fig. 27; read-out: IC50, replicate 1
With `CC1=CC(CC(=O)N2CCN(C(=O)COc3ccc(Br)cc3C)CC2)OC1=O` (stereo not drawn) [4i] the IC50 was 91.9 µM.

Same assay, conditions: ShHTL11; YLG competition; Supplementary Fig. 27; read-out: IC50, replicate 2
Work on `CC1=CC(CC(=O)N2CCN(C(=O)COc3ccc(Br)cc3C)CC2)OC1=O` (stereo not drawn) [4i] yielded an IC50 of 101 µM.

Same assay, conditions: ShHTL11; YLG competition; Supplementary Fig. 27; read-out: IC50, replicate 3
`CC1=CC(CC(=O)N2CCN(C(=O)COc3ccc(Br)cc3C)CC2)OC1=O` (stereo not drawn) [4i] showed an IC50 of 86 µM.

Same assay, conditions: ShHTL11; average of 3 replicates; Supplementary Fig. 27; read-out: IC50, average
For `CC1=CC(CC(=O)N2CCN(C(=O)COc3ccc(Br)cc3C)CC2)OC1=O` (stereo not drawn) [4i], the IC50 was 93 µM.
